Values of other authors in article PMC3848067 (Acta Naturae, 2013).
Read-outs that look alike come from different tables or passages of the source.

Tests used:
[1] = set-up: method as in PMID 20380483; settings: after oral administration of the named drug; cited from earlier work
[2] = dogs, value for the tested compound (2 or its metabolite AZT), cited from earlier work
[3] = rabbits, single oral dose of the named compound equivalent to 200 mg of AZT/kg; cited from earlier work
[4] = metabolite AZT after oral phosphonate 2, 20 mg/kg, rats; cited from earlier work
[5] = dogs, cited from earlier work; for tmax of AZT: oral phosphonate 2 capsules 600 mg daily
[6] = cited from earlier work
MT-4 cells = settings: MT-4 cell culture; cited from earlier work
HIV infection = settings: cited from earlier work
HIV = settings: cited from earlier work
mice = settings: intraperitoneal administration to mice; cited from earlier work
HIV-1 [7] = settings: MT-4 cell culture; cited from earlier work
HIV-1 [8] = settings: MT-4, CEM-SS and CEM-X174 cell lines; cited from earlier work
HIV-1 [9] = settings: cell cultures C8 and JM; cited from earlier work
IIIB strain of HIV = IIIB strain of HIV in blood mononuclear cells; cited from earlier work
HXB2 strain of HIV = HXB2 strain of HIV in blood mononuclear cells; cited from earlier work
[10] = cited from earlier work; remark: listed apart in the source
[11] = canine whole blood at 37°С; cited from earlier work
[12] = single oral dose of capsules of 2, 10 mg/kg
[13] = single oral dose of capsules of 2, 20 mg/kg
[14] = single oral dose of capsules of 2, 40 mg/kg
[15] = compound 2 orally 600 mg for 7 days, 24 h intervals, day 7

## Cc1cn([C@H]2C[C@H](N=[N+]=[N-])[C@@H](CO)O2)c(=O)[nH]c1=O [AZT, 3’-azido-3’-deoxythymidine]
[1]
  Cmax of AZT: ~1.2 µg/mL
  tmax of AZT: 0.5 to 0.8 h
[2]; [12]
  Cmax: 0.36 ± 0.24 µg/mL
  Cmax/AUC: 0.119 ± 0.033 h⁻¹
  MRT: 8.90 ± 5.34 h
  t1/2: 4.57 ± 1.46 h
  tmax: 4.7 ± 1.0 h
[2]; [13]
  Cmax: 0.69 ± 0.49 µg/mL
  Cmax/AUC: 0.107 ± 0.023 h⁻¹
  MRT: 12.0 ± 2.6 h
  t1/2: 9.7 ± 4.3 h
  tmax: 5.0 ± 1.7 h
[2]; [14]
  Cmax: 0.98 ± 0.56 µg/mL
  Cmax/AUC: 0.100 ± 0.016 h⁻¹
  MRT: 12.2 ± 1.4 h
  t1/2: 7.0 ± 2.5 h
  tmax: 6.0 ± 1.3 h
[3]
  AUC of AZT: 88.5 ± 25.5 µg·h/mL
  Cmax of AZT: 39.64 ± 4.24 µg/mL
  MRT of AZT: 2.10 ± 0.30 h
  t1/2 of AZT: 2.13 ± 0.71 h
  tmax of AZT: 1.0 h
[4]
  AUC 0-t: 2.27 µg·h/mL
  MRT: 6.54 h
  tmax: 4 h
  Сmax: 0.4 mg/L
[5]; [15]
  С0 of AZT in plasma: 0.17 ± 0.07 mg/L
  Сmin of AZT in plasma: 0.17 ± 0.07 mg/L
[5]; day 1
  tmax of AZT: 2.7 h
[5]; day 7
  tmax of AZT: 4 h
[6]; AZT concentration after oral administration of phosphonate 2
  half-life period (blood plasma): 3.9 h
[6]; metabolite of phosphonate 2
  detection of AZT in organs and tissues (liver, kidneys, spleen, lungs, skeletal muscles, mesentery): detected in all these organs and tissues

## Cc1cn(C2CC(N=[N+]=[N-])C(CO[PH](=O)[O-])O2)c(=O)[nH]c1=O.[Na+] (centres unmarked) [Compound 1, sodium salt of AZT 5’-H-phosphonate]
MT-4 cells
  toxicity as compared to AZT: lower
HIV infection; HIV-infected patients receiving HAART
  therapeutic efficacy: significant therapeutic efficacy
HIV infection; adults and children
  tolerability: well tolerated in both adults and children
HIV infection; clinical practice
  therapeutic effect (reduction of viral stress, immunorestoration, decrease in risk of concomitant diseases): stable positive therapeutic effect
HIV infection; during phosphazide therapy
  adverse effects typically observed with AZT (vomiting, nausea, headache, diarrhea, myalgia, anemia, thrombocytopenia, neutrocytopenia): No adverse effects
HIV infection; patients with tuberculosis and liver pathologies of viral etiology
  safety in patients with opportunistic infections: safe for patients with tuberculosis and liver pathologies of viral etiology
HIV; AZT from phosphazide
  penetration of AZT through the placenta: capable of efficiently penetrating the placenta
HIV; HIV-infected women
  effect on course of pregnancy, fetal maturity or viability: does not affect
HIV; during pregnancy, combined with Retrovir or Nevirapine during childbirth and postnatal period
  prevention of vertical transmission of HIV: efficiently prevents vertical transmission of HIV
mice
  mean lethal dose (LD50): 2300 mg/kg
HIV-1 [7]
  anti-HIV activity: moderate
  selectivity index compared to AZT: higher than that of AZT
HIV-1 [8]
  activity compared to AZT: lower than that of AZT by almost an order of magnitude
HIV-1 [9]
  anti-HIV activity, times higher vs. that of AZT: 10–20 times
IIIB strain of HIV
  selectivity index, times higher than that of AZT: 1.5 times
HXB2 strain of HIV
  selectivity index, times higher than that of AZT: 15 times
[10]
  half-life in 100% human blood serum: over 6 h
[11]
  Т1/2 in canine whole blood: 3 h
